Values after ≈ are worked out from the molar mass of the structure shown. Where two headings read alike, the source gives them in different places.
Assays:
Type in all cases: cell-based
S. uberis ATCC 19436 = experiment: MIC by broth microdilution, S. uberis; settings: Streptococcus uberis, read-out: S. uberis ATCC 19436 MIC
Protocol: (§1) Antibacterial susceptibility testing was performed in triplicate (biological) by measuring minimum inhibitory concentrations (MICs) by broth microdilution in 96-well flat bottom microtiter plates (ThermoFisher Scientific, New Zealand). S. uberis ATCC 19436, S. aureus ATCC 6538, or E. coli ATCC 10596 cells grown overnight were diluted to an OD600 of approximately 0.025, so that the final concentration of cells in the MIC assay was approximately 5×10^5 cfu/mL in media as follows: S. uberis; Todd Hewitt Broth (THB), S. aureus; Tryptic Soy Broth (TSB) and Cation Adjusted Muller Hinton Broth (CAMHB), and E. coli; Lysogeny Borth (LB) and CAMHB, before being dispensed into microtiter wells. As required additional sterile Zinc Sulphate (Heptahydrate) was supplemented into the media, so the final concentration was 50 μM. Test compounds were added to starting wells and two-fold serial dilutions were undertaken to generate a range of inhibitor concentrations at a final volume of 200 μl. Media and test compound-free (untreated) controls were included in each microtiter plate in triplicate. After 24 h incubation at 37° C. and 200 rpm, the OD600 of wells were read using a Varioskan Flash plate reader (ThermoFisher Scientific, New Zealand). The MIC was reported as the lowest concentration of the test compound for which no growth occurred, as determined by OD600 readings. The minimum bactericidal concentration (MBC) was determined using the Miles-Misra drop-plate method to measure the viability of cells in response to test compound challenge.

S. aureus ATCC 6538 = experiment: MIC by broth microdilution, S. aureus; settings: Staphylococcus aureus, read-out: S. aureus ATCC 6538 MIC
Protocol: as §1

E. coli ATCC 10596 = experiment: MIC by broth microdilution, E. coli; settings: Escherichia coli, read-out: E. coli ATCC 10536 MIC
Protocol: as §1

[1] = ATCC 10536 / ATCC 10596, No Zinc
[2] = ATCC 10536 / ATCC 10596, Zinc (50 μM)

Row | SMILES | MIC (S. uberis ATCC 19436; ATCC19436, No Zinc) [µg/mL] | MIC (S. uberis ATCC 19436; ATCC19436, Zinc (50 μM)) [µg/mL] | MIC (S. aureus ATCC 6538; ATCC6538, No Zinc) [µg/mL] | MIC (S. aureus ATCC 6538; ATCC6538, Zinc (50 μM)) [µg/mL] | MIC (E. coli ATCC 10596; [1]) [µg/mL] | MIC (E. coli ATCC 10596; [2]) [µg/mL]
1 | O=S(=O)(Nc1cccc2ccc(CN3CCSCC3)nc12)c1ccc(C(F)(F)F)cc1 [ZDR088, N-(2-(Thiomorpholinomethyl)quinolin-8-yl)-4-(trifluoromethyl)benzenesulfonamide] | > 256 | 0.0625 (≈ 0.134 µM) | > 256 | > 256 | > 256 | > 256
2 | C=CCNCc1ccc2cccc(NS(=O)(=O)c3ccc(C(F)(F)F)cc3)c2n1 [ZDR097, N-(2-((Allylamino)methyl)quinolin-8-yl)-4-(trifluoromethyl)benzenesulfonamide] | > 256 | 0.0625 (≈ 0.148 µM) | > 256 | > 256 | > 256 | 256 (≈ 607 µM)
3 | O=S(=O)(Nc1cccc2ccc(CNCC(F)F)nc12)c1ccc(C(F)(F)F)cc1 [ZDR100, N-(2-(((2,2-Difluoroethyl)amino)methyl)quinolin-8-yl)-4-(trifluoromethyl)benzenesulfonamide] | 128 (≈ 287 µM) | 0.25 (≈ 0.561 µM) | 32 (≈ 71.8 µM) | 256 (≈ 575 µM) | > 256 | > 256
4 | O=S(=O)(Nc1cccc2ccc(CNCc3cccnc3)nc12)c1ccc(C(F)(F)F)cc1 [ZDR101, N-(2-(((Pyridin-3-ylmethyl)amino)methyl)quinolin-8-yl)-4-(trifluoromethyl)benzenesulfonamide] | > 256 | 4 (≈ 8.47 µM) | 64 (≈ 135 µM) | 64 (≈ 135 µM) | 128 (≈ 271 µM) | > 256
5 | O=S(=O)(Nc1cccc2ccc(CNCc3ccccc3)nc12)c1ccc(C(F)(F)F)cc1 [ZDR103] | > 256 | 0.125 (≈ 0.265 µM) | 128 (≈ 271 µM) | > 256 | > 256 | > 256
6 | O=S(=O)(Nc1cccc2ccc(CNCc3ccco3)nc12)c1ccc(C(F)(F)F)cc1 [ZDR106, N-(2-(((Furan-2-ylmethyl)amino)methyl)quinolin-8-yl)-4-(trifluoromethyl)benzenesulfonamide] | 64 (≈ 139 µM) | 0.25 (≈ 0.542 µM) | > 256 | > 256 | > 256 | > 256
7 | O=S(=O)(Nc1cccc2ccc(CNCc3cccs3)nc12)c1ccc(C(F)(F)F)cc1 [ZDR107, N-(2-(((Thiophen-2-ylmethyl)amino)methyl)quinolin-8-yl)-4-(trifluoromethyl)benzenesulfonamide] | 64 (≈ 134 µM) | 0.125 (≈ 0.262 µM) | > 256 | 64 (≈ 134 µM) | > 256 | > 256
8 | O=S(=O)(Nc1cccc2ccc(CNc3ccccc3)nc12)c1ccc(C(F)(F)F)cc1 [ZDR108, N-(2-((Phenylamino)methyl)quinolin-8-yl)-4-(trifluoromethyl)benzenesulfonamide] | > 256 | 0.25 (≈ 0.546 µM) | 64 (≈ 140 µM) | > 256 | > 256 | > 256
9 | O=S(=O)(Nc1cccc2ccc(CNc3ccccn3)nc12)c1ccc(C(F)(F)F)cc1 [ZDR109, N-(2-((Pyridin-2-ylamino)methyl)quinolin-8-yl)-4-(trifluoromethyl)benzenesulfonamide] | > 256 | 0.5 (≈ 1.09 µM) | > 256 | > 256 | > 256 | > 256
10 | O=S(=O)(Nc1cccc2ccc(CNCc3ccncc3)nc12)c1ccc(C(F)(F)F)cc1 [ZDR110, N-(2-(((Pyridin-4-ylmethyl)amino)methyl)quinolin-8-yl)-4-(trifluoromethyl)benzenesulfonamide] | > 256 | 4 (≈ 8.47 µM) | > 256 | > 256 | > 256 | > 256
11 | O=S(=O)(Nc1cccc2ccc(CNCCN3CCSCC3)nc12)c1ccc(C(F)(F)F)cc1 [ZDR113, N-(2-(((2-Thiomorpholinoethyl)amino)methyl)quinolin-8-yl)-4-(trifluoromethyl)benzenesulfonamide] | 128 (≈ 251 µM) | 1 (≈ 1.96 µM) | > 256 | > 256 | > 256 | > 256
12 | CO/N=C/c1ccc2cccc(NS(=O)(=O)c3ccc(C(F)(F)F)cc3)c2n1 [ZDR126, (E)-N-(2-((Methoxyimino)methyl)quinolin-8-yl)-4-(trifluoromethyl)benzenesulfonamide] | > 256 | 0.125 (≈ 0.305 µM) | > 256 | > 256 | > 256 | > 256
13 | O=S(=O)(Nc1cccc2ccc(CNCCOCCO)nc12)c1ccc(C(F)(F)F)cc1 [ZDR129, N-(2-(((2-(2-Hydroxyethoxy)ethyl)amino)methyl)quinolin-8-yl)-4-(trifluoromethyl)benzenesulfonamide] | 64 (≈ 136 µM) | 1 (≈ 2.13 µM) | 32 (≈ 68.2 µM) | 32 (≈ 68.2 µM) | 256 (≈ 545 µM) | 256 (≈ 545 µM)
14 | O=S(=O)(Nc1cccc2ccc(CNCCOCCOCCO)nc12)c1ccc(C(F)(F)F)cc1 [ZDR130, N-(2-(((2-(2-(2-Hydroxyethoxy)ethoxy)ethyl)amino)methyl)quinolin-8-yl)-4-(trifluoromethyl)benzenesulfonamide] | 64 (≈ 125 µM) | 1 (≈ 1.95 µM) | 128 (≈ 249 µM) | 256 (≈ 499 µM) | 256 (≈ 499 µM) | 256 (≈ 499 µM)
15 | COCCOCCNCc1ccc2cccc(NS(=O)(=O)c3ccc(C(F)(F)F)cc3)c2n1 [ZDR131, N-(2-(((2-(2-Methoxyethoxy)ethyl)amino)methyl)quinolin-8-yl)-4-(trifluoromethyl)benzenesulfonamide] | 64 (≈ 132 µM) | 1 (≈ 2.07 µM) | 64 (≈ 132 µM) | 128 (≈ 265 µM) | 256 (≈ 529 µM) | 256 (≈ 529 µM)
16 | COCCOCCOCCNCc1ccc2cccc(NS(=O)(=O)c3ccc(C(F)(F)F)cc3)c2n1 [ZDR132, N-(2-(5,8,11-Trioxa-2-azadodecyl)quinolin-8-yl)-4-(trifluoromethyl)benzenesulfonamide] | 64 (≈ 121 µM) | 1 (≈ 1.9 µM) | 64 (≈ 121 µM) | 256 (≈ 485 µM) | 256 (≈ 485 µM) | 256 (≈ 485 µM)

The next lines start with the values.

Row | MIC (S. uberis ATCC 19436; ATCC19436, No Zinc) [µg/mL] | MIC (S. uberis ATCC 19436; ATCC19436, Zinc (50 μM)) [µg/mL] | MIC (S. aureus ATCC 6538; ATCC6538, No Zinc) [µg/mL] | MIC (S. aureus ATCC 6538; ATCC6538, Zinc (50 μM)) [µg/mL] | MIC (E. coli ATCC 10596; [1]) [µg/mL] | MIC (E. coli ATCC 10596; [2]) [µg/mL] | SMILES
17 | 64 (≈ 138 µM) | 0.5 (≈ 1.08 µM) | 256 (≈ 551 µM) | 128 (≈ 276 µM) | > 256 | > 256 | CN1CCN(Cc2ccc3cccc(NS(=O)(=O)c4ccc(C(F)(F)F)cc4)c3n2)CC1 [ZDR089, N-(2-((4-Methylpiperazin-1-yl)methyl)quinolin-8-yl)-4-(trifluoromethyl)benzenesulfonamide]
18 | 64 (≈ 141 µM) | 16 (≈ 35.1 µM) | 64 (≈ 141 µM) | 128 (≈ 281 µM) | 256 (≈ 562 µM) | > 256 | O=S(=O)(Nc1cccc2ccc(CNCC(O)CO)nc12)c1ccc(C(F)(F)F)cc1 (stereo not drawn) [ZDR093, N-(2-(((2,3-Dihydroxypropyl)amino)methyl)quinolin-8-yl)-4-(trifluoromethyl)benzenesulfonamide]
19 | 32 (≈ 68.2 µM) | 4 (≈ 8.52 µM) | 62 (≈ 132 µM) | 32 (≈ 68.2 µM) | 256 (≈ 545 µM) | 256 (≈ 545 µM) | O=S(=O)(Nc1cccc2ccc(CN(CCO)CCO)nc12)c1ccc(C(F)(F)F)cc1 [ZDR094, N-(2-((Bis(2-hydroxyethyl)amino)methyl)quinolin-8-yl)-4-(trifluoromethyl)benzenesulfonamide]
20 | 64 (≈ 114 µM) | 4 (≈ 7.1 µM) | > 256 | > 256 | > 256 | > 256 | O=S(=O)(Nc1cccc2ccc(CN(Cc3ccccn3)Cc3ccccn3)nc12)c1ccc(C(F)(F)F)cc1 [ZDR096, N-(2-((Bis(pyridin-2-ylmethyl)amino)methyl)quinolin-8-yl)-4-(trifluoromethyl)benzenesulfonamide]
21 | 64 (≈ 153 µM) | 0.125 (≈ 0.298 µM) | 64 (≈ 153 µM) | > 256 | > 256 | > 256 | C#CCNCc1ccc2cccc(NS(=O)(=O)c3ccc(C(F)(F)F)cc3)c2n1 [ZDR098, N-(2-((Prop-2-yn-1-ylamino)methyl)quinolin-8-yl)-4-(trifluoromethyl)benzenesulfonamide]
22 | 64 (≈ 150 µM) | 0.25 (≈ 0.585 µM) | 64 (≈ 150 µM) | > 256 | > 256 | 256 (≈ 599 µM) | O=S(=O)(Nc1cccc2ccc(CNCCF)nc12)c1ccc(C(F)(F)F)cc1 [ZDR099, N-(2-(((2-Fluoroethyl)amino)methyl)quinolin-8-yl)-4-(trifluoromethyl)benzenesulfonamide]
23 | 32 (≈ 73.2 µM) | 2 (≈ 4.57 µM) | 128 (≈ 293 µM) | 8 (≈ 18.3 µM) | > 256 | > 256 | NC(=O)N/N=C/c1ccc2cccc(NS(=O)(=O)c3ccc(C(F)(F)F)cc3)c2n1 [ZDR118, (E)-2-((8-((4-(Trifluoromethyl)phenyl)sulfonamido)quinolin-2-yl)methylene)hydrazine-1-carboxamide]

— patent US11691949B2, “Quinoline sulfonamide compounds and their use as antibacterial agents” (OTAGO INNOVATION LIMITED, priority 2017, dated 2023)
